Tests used:
[1] = target: T1, Human sEH Cterm-EH activity (Homo sapiens, UniProt P34913); assay: Cterm-EH inhibition IC50 with 4-nitrophenyl-trans-2,3-epoxy-3-phenylpropyl carbonate; assay type: biochemical; conditions: substrate 50 μM, 5 min preincubation, 30° C.; read-out: IC50
T1 construct: use of a truncated enzyme from crude extract versus purified full-length human sEH; made in house; host or cells: baculovirus expression system (insect cells)
T1 sequence (P34913 1-555): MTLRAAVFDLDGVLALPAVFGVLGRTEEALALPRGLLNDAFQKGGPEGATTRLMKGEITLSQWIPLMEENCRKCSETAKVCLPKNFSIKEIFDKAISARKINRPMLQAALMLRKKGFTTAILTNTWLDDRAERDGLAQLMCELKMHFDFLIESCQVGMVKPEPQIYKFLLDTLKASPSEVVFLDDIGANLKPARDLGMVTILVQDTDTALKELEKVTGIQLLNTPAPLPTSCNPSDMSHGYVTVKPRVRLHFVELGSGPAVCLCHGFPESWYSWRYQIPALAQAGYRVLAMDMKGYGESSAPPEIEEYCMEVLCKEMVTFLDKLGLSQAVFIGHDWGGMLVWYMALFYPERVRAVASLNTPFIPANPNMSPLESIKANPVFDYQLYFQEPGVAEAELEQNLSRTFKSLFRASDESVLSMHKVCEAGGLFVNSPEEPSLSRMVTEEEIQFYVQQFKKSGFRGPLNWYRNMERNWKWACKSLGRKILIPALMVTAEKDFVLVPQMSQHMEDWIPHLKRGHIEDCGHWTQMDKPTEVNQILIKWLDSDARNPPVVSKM

[2] = target: T1, Human sEH Cterm-EH activity; assay: Cterm-EH dissociation constant with [3H]-trans-1,3-diphenylpropene oxide; assay type: biochemical
Experimental: For the Cterm-EH activity, dissociation constants were determined using racemic [^3H]-trans-1,3-diphenylpropene oxide as substrate. […] Velocity was measured as described (Borhan et al., Anal. Biochem. 231, 188-200 (1995)). […] Results are mean±standard deviation of three separate determination of KI.

full length human sEH = target: T2, full length human sEH (Homo sapiens, UniProt P34913); assay: EH activity inhibition, full length human sEH; assay type: biochemical
T2 construct: use of a truncated enzyme from crude extract versus purified full-length human sEH; made in house; host or cells: baculovirus expression system (insect cells)
T2 sequence (P34913 1-555): T1 sequence (P34913 1-555)
Experimental: Nterm-Phos activity was measured in Bis-Tris HCl buffer (25 mM PH 7.0) containing 0.1 mg/mL of Fraction V BSA and 1 mM of MgCl2 (buffer A) at 30° C. […] APHP activity was measured as described using 7 as substrate (Newman et al., Proc. Natl. Acad. Sci. USA. 100, 1558-1563 (2003)). Compounds 34-37 were incubated separately with the enzyme for a given time, and then the reaction was stopped by the addition of 100 μL of methanol. The reaction products for compounds 34-37 were extracted with 500 μL of ethyl acetate. The quantification of the alcohol products was performed by LC/MS analysis of 2 μL of the organic phase. The Cterm-EH activity was measured as described previously in buffer A, using either racemic 4-nitrophenyl-trans-2,3-epoxy-3-phenylpropyl carbonate (Dietze et al., Anal. Biochem. 216, 176-187 (1994)) or racemic [^3H]-trans-1,3-diphenylpropene oxide as substrate (Borhan et al., Anal. Biochem. 231, 188-200 (1995)). This latter substrate was also used to measure the activity of the cress sEH and the truncated human sEH.

truncated human sEH = target: T3, truncated human sEH (Homo sapiens, UniProt P34913); assay: EH activity inhibition, N-terminally truncated human sEH; assay type: biochemical
T3 construct: C-terminal region (Mel^237-Met^554) of human sEH was amplified by PCR; made in house; host or cells: baculovirus (pFastBac1) in high-5 Trichoplusia ni cells; 10,000 g supernatant used as crude extract
T3 sequence (P34913 237-555 limits assumed): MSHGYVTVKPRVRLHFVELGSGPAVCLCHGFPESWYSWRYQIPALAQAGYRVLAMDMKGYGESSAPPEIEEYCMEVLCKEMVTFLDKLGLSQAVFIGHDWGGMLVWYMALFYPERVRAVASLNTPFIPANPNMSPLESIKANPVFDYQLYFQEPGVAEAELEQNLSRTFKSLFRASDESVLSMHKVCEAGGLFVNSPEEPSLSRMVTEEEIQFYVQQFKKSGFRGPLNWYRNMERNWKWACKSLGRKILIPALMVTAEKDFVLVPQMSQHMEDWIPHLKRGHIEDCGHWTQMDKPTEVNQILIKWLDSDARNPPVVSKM
Source text: (§1) Recombinant human sEH (HsEH) was produced in a baculovirus expression system (Beetham et al., Arch. Biochem. Biophys. 305, 197-201 (1993)) and purified by affinity chromatography (Wixtrom et al., Anal. Biochem. 169, 71-80 (1983)). […] No detectable esterase or glutathione transferase activities were observed. Recombinant mouse-eared cress sEH was produced in a baculovirus expression system and purified as described (Morisseau et al., Arch. Biochem. Biophys. 378, 321-332 (2000)). The nucleotide sequence of the C-terminal region (Mel^[…]) of human sEH was amplified by PCR using [NT] as forward primer and [NT] as reverse primer. The resulting band was gel purified and restricted with EcoR1 and Sal1, which were introduced by the primers, and the restricted fragment sub-cloned into the multiple cloning site of the pFastBac1 vector (Invitrogen). After verification of the obtained nucleotide sequence, the recombinant pFastBac1 plasmid was introduced in competent DH10bac cells leading to the formation of a recombinant plasmid containing the DNA insert. The isolated recombinant plasmid was used to produce recombinant baculovirus in Sf21 cells following procedures recommended by the manufacturer. The truncated HsEH was produced in high-5 Trichloplusia ni cell cultures following published procedures (Beetham et al., Arch. Biochem. Biophys. 305, 197-201 (1993)). Seventy-two hours post infection, the cells were collected by centrifugation (2,000 g×20 min). The cell pellet was then suspended in a sodium phosphate buffer (76 mM, pH 7.4) containing 1 mM of phenylmethylsulfonyl fluoride, EDTA and dithiothretol. The suspension was then homogenized by Polytron at 9,000 rpm for 1 min and centrifuged (10,000 g×20 min). The resulting supernatant was frozen at -80° C. until used for experiments. […] Protein concentrations were quantified with the Pierce BCA assay (Pierce; Rockford, Ill.) using Fraction V bovine serum albumin (BSA) as the calibrating standard. Nterm-Phos activity was measured in Bis-Tris HCl buffer (25 mM PH 7.0) containing 0.1 mg/mL of Fraction V BSA and 1 mM of MgCl2 (buffer A) at 30° C. […] APHP activity was measured as described using 7 as substrate (Newman et al., Proc. Natl. Acad. Sci. USA. 100, 1558-1563 (2003)). Compounds 34-37 were incubated separately with the enzyme for a given time, and then the reaction was stopped by the addition of 100 μL of methanol. The reaction products for compounds 34-37 were extracted with 500 μL of ethyl acetate. The quantification of the alcohol products was performed by LC/MS analysis of 2 μL of the organic phase. […] Biochem. 231, 188-200 (1995)). This latter substrate was also used to measure the activity of the cress sEH and the truncated human sEH.

cress sEH = assay: EH activity inhibition, cress sEH; assay type: biochemical, mouse-eared cress
Source text: as §1

Nterm-phos = target: T4, Nterm-phos (Homo sapiens, UniProt P34913); assay: Sulfates tested as substrates for Nterm-phos (LC-MS of alcohol or diol); assay type: biochemical; conditions: enzyme 400 nM, compound 100 μM, one hour
T4 construct: use of a truncated enzyme from crude extract versus purified full-length human sEH; made in house; host or cells: baculovirus expression system (insect cells)
T4 sequence (P34913 1-555): T1 sequence (P34913 1-555)
Experimental: To understand the mode of action of these new inhibitors, compounds 1 and 2 were tested as substrates for the Nterm-phos. Enzyme was incubated (400 nM) with the compounds (100 μM) for an hour and analyzed the mixture by LC-MS to detect any alcohol or diol formed (Newman et al., Proc. Natl. Acad. Sci. USA. 100, 1558-1563 (2003)). Formation of any alcohol or diol was not detected.

| Structure (SMILES) | IC50 [1] [µM] | KI at Cterm-EH relative to KI at Nterm-Phos [2] | Ki ([2]; non-competitive inhibition, n=3) [µM] | inhibition at 100 µM (full length human sEH) [%] | inhibition at 100 µM (truncated human sEH) [%] | Inhibition at 100 μM (%) (cress sEH) | Formation of any alcohol or diol (Nterm-phos) |
| --- | --- | --- | --- | --- | --- | --- | --- |
| CCCCCCCCC(CCCCCCCCC(=O)O)OS(=O)(=O)O (stereo not drawn) [Compound 1, 10-Sulfonooxy-octadecanoic acid] | 28 ± 2 | roughly 100 fold | 31 ± 2 | 86 ± 2 | 89 ± 3 | <2 | not detected |
| CCCCCCCCC(OS(=O)(=O)O)C(O)CCCCCCCC(=O)O (stereo not drawn) [Compound 2, 9/10-Sulfonooxy-hydroxy-octadecanoic acid] | 90 ± 5 | – | – | 54 ± 3 | 58 ± 2 | <2 | not detected |
| CCCCCCCCCC(CCCCCCCC)OS(=O)(=O)O (stereo not drawn) [Compound 3, 9-Octadecanyl-sulfate] | 21 ± 5 | – | – | 72 ± 2 | 67 ± 3 | <2 | – |
| CCCCCCC(C/C=C\CCCCCCCC(=O)O)OS(=O)(=O)O (stereo not drawn) [Compound 4, 12-Sulfonoxy-cis-9-octadecenoic acid] | > 100 | – | – | 26 ± 3 | 16 ± 2 | <2 | – |
| CCCCCCC(C/C=C/CCCCCCCC(=O)O)OS(=O)(=O)O (stereo not drawn) [Compound 5, 12-Sulfonoxy-trans-9-octadecenoic acid] | 16 ± 3 | – | – | 68 ± 2 | 44 ± 4 | <2 | – |

Reference: patent US20090215894A1, “INHIBITION OF PHOSPHATASE ACTIVITY OF SOLUBLE EPOXIDE HYDROLASE AMINO TERMINUS AND USES THEREOF” (REGENTS OF THE UNIVERSITY OF CALIFORNIA, priority 2005, published 2009)
